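Dose response: 5 concentrations. Exposure: 48 h. Format: 96-well plates. Endpoint: linear interpolation; highest concentration if not reached. GI50 marks 50% less growth.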 Active and inactive are the calls of the source. Rule as the data show it: active = GI50 up to about 1.1 µM and inactive = higher.
Legend:
Assay in all cases: growth of human tumour cells (NCI), 48 h
[1] = test system: A549
[2] = test system: ACHN
[3] = test system: HOP-92
[4] = test system: KM12
[5] = test system: M14
[6] = test system: MOLT-4
[7] = test system: NCI-H226
[8] = test system: OVCAR-3
[9] = test system: OVCAR-5
[10] = test system: RXF 393
[11] = test system: SF-539
[12] = test system: SK-MEL-28
[13] = test system: SK-OV-3
[14] = test system: SN12C
[15] = test system: SNB-75
[16] = test system: SW-620
[17] = test system: UACC-257
[18] = test system: UO-31
[19] = test system: MDA-MB-435

Measured: GI50

CC1(C)CCCC2(C)C3C(O)CC2(C)C(O)C31 (stereo not drawn)
inactive: [1] > 100 µM | [2] > 100 µM | [3] > 10 µM | [4] > 100 µM | [5] > 100 µM | [6] > 100 µM | [7] > 100 µM | [8] > 100 µM | [9] > 100 µM | [10] > 100 µM | [11] > 100 µM | [12] > 100 µM | [13] > 100 µM | [14] > 100 µM | [15] > 100 µM | [16] > 100 µM | [17] > 100 µM | [18] > 100 µM

O=C1C(=Cc2c(O)cc(O)cc2O)C(=O)c2ccccc21
inactive: [1] > 100 µM | [2] > 40.8 µM | [3] > 38.5 µM | [4] > 36.7 µM | [5] > 43.3 µM | [6] 39.8 µM | [7] 36 µM | [8] > 40.6 µM | [9] > 43 µM | [10] 14.3 µM | [11] > 42.7 µM | [12] > 45.8 µM | [13] > 100 µM | [14] 19.5 µM | [15] 26.3 µM | [16] > 42.1 µM | [17] > 42.5 µM | [18] > 100 µM

COC(=O)C1CCCC2(C1)OCCO2 (stereo not drawn)
inactive: [1] > 100 µM | [2] > 100 µM | [3] > 100 µM | [4] > 100 µM | [5] > 100 µM | [6] > 100 µM | [7] > 100 µM | [8] > 100 µM | [9] > 100 µM | [10] > 100 µM | [11] > 100 µM | [12] > 100 µM | [13] > 100 µM | [14] > 100 µM | [15] > 100 µM | [16] > 100 µM | [17] > 100 µM | [18] > 100 µM

Nc1nc(Cl)cc(NCC(O)CO)n1 (stereo not drawn)
inactive: [1] > 100 µM | [3] > 100 µM | [4] > 100 µM | [5] > 100 µM | [6] > 100 µM | [7] > 100 µM | [8] > 100 µM | [9] > 100 µM | [10] > 100 µM | [11] > 100 µM | [12] > 100 µM | [13] > 100 µM | [14] > 100 µM | [15] > 100 µM | [16] > 100 µM | [17] > 100 µM | [18] > 100 µM

O=C(CC1C(=O)Nc2ccccc2S1(=O)=O)Nc1ccc(Cl)cc1 (stereo not drawn)
inactive: [1] 31.6 µM | [2] 20.4 µM | [3] 16.9 µM | [5] 31 µM | [6] 13.5 µM | [7] 32.2 µM | [8] 15.2 µM | [9] 78.9 µM | [10] 15.9 µM | [11] 13.8 µM | [12] 20 µM | [14] 34 µM | [15] 16.9 µM | [16] 31.3 µM | [17] 14.9 µM | [18] 17.1 µM

CCOC(=O)C1([Se]c2ccccc2)CCCC1=O (stereo not drawn)
inactive: [1] 32.7 µM | [2] 20.3 µM | [3] 25.5 µM | [4] 30.9 µM | [5] 21.3 µM | [6] 22.3 µM | [7] 29 µM | [8] 26.6 µM | [9] 40.8 µM | [10] 7.82 µM | [11] 19.6 µM | [12] 18.9 µM | [13] > 100 µM | [14] 15 µM | [15] 23.6 µM | [17] 43.7 µM | [18] 23.6 µM

OCC1OC(c2ccccc2)CC1O (stereo not drawn)
inactive: [1] > 100 µM | [2] > 100 µM | [4] > 100 µM | [5] > 100 µM | [19] > 100 µM | [6] > 100 µM | [7] > 100 µM | [8] > 100 µM | [9] > 100 µM | [10] > 100 µM | [11] > 100 µM | [12] > 100 µM | [13] > 100 µM | [14] > 100 µM | [15] > 100 µM | [16] > 100 µM | [17] > 100 µM | [18] > 100 µM

CN1CCc2cc3c4cc2C1Cc1ccc(cc1)Oc1cc(ccc1O)CC1c2c(cc(O)c(c2O4)O3)CCN1C (stereo not drawn)
inactive: [1] 2.45 µM | [2] 7.52 µM | [3] 2.52 µM | [4] 1.86 µM | [5] 1.62 µM | [6] 2.03 µM | [7] 2.07 µM | [8] 3.94 µM | [9] 8.2 µM | [10] 3.24 µM | [11] 1.67 µM | [12] 1.8 µM | [13] 3.1 µM | [14] 3.63 µM | [15] 3.53 µM | [16] 2.22 µM | [17] 1.95 µM | [18] 3.44 µM

Cc1ccc(S(=O)(=O)OCC/C(=C\[Si](C)(C)C)c2ccccc2)cc1
inactive: [1] > 100 µM | [2] > 100 µM | [3] > 100 µM | [4] > 100 µM | [5] > 100 µM | [6] > 100 µM | [7] > 100 µM | [8] > 100 µM | [9] > 100 µM | [10] > 100 µM | [11] > 100 µM | [12] > 100 µM | [13] > 100 µM | [14] > 100 µM | [15] > 100 µM | [16] > 100 µM | [17] > 100 µM | [18] > 100 µM

CCc1c(OC(C)=O)c2c(NC3OCC(OC(C)=O)C(OC(C)=O)C3OC(C)=O)nc(SC)nc2oc1=O (stereo not drawn)
inactive: [1] > 100 µM | [2] > 100 µM | [3] > 100 µM | [4] > 100 µM | [5] > 100 µM | [6] > 100 µM | [7] > 100 µM | [8] > 100 µM | [9] > 100 µM | [10] > 100 µM | [11] > 100 µM | [13] > 100 µM | [14] > 100 µM | [15] > 100 µM | [16] > 100 µM | [17] > 100 µM | [18] > 100 µM

CCN(CC)CCCNC(=O)c1ccc([N+](=O)[O-])cc1O
inactive: [1] > 100 µM | [2] > 100 µM | [3] > 100 µM | [4] > 100 µM | [5] > 100 µM | [6] > 100 µM | [7] > 100 µM | [8] > 100 µM | [9] > 100 µM | [10] > 100 µM | [11] > 100 µM | [12] > 100 µM | [13] > 100 µM | [14] > 100 µM | [15] > 100 µM | [16] > 100 µM | [17] > 100 µM | [18] > 100 µM

From ChEMBL document CHEMBL1201862, “PubChem BioAssay data set” (2004)
